Experimental data reported in PubChem BioAssay (NCI).
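Step 1: Grow cells in 96-well plates. Step 2: Expose to compound for 48 hours at 5 concentrations. Step 3: Interpolate endpoints linearly; if unreached, use highest concentration. Here, GI50 denotes the concentration required for 50% inhibition of growth. TGI: total growth inhibition.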

Experiments:
Assay in all cases: NCI tumour cell line growth inhibition, 48 h
OVCAR-4 ovarian = test system: OVCAR-4 ovarian
EKVX NSCLC = test system: EKVX NSCLC
HCT-116 colon = test system: HCT-116 colon
SNB-19 CNS = test system: SNB-19 CNS
HOP-62 NSCLC = test system: HOP-62 NSCLC
U251 CNS = test system: U251 CNS
NCI/ADR-RES ovarian = test system: NCI/ADR-RES ovarian
OVCAR-8 ovarian = test system: OVCAR-8 ovarian
RXF 393 renal = test system: RXF 393 renal
M14 melanoma = test system: M14 melanoma
A498 renal = test system: A498 renal
NCI-H226 lung = test system: NCI-H226 lung
UO-31 renal = test system: UO-31 renal
HCC-2998 colon = test system: HCC-2998 colon
DU-145 prostate = test system: DU-145 prostate
LOX IMVI melanoma = test system: LOX IMVI melanoma
UACC-257 melanoma = test system: UACC-257 melanoma
OVCAR-3 ovarian = test system: OVCAR-3 ovarian
NCI-H522 lung = test system: NCI-H522 lung
CAKI-1 renal = test system: CAKI-1 renal
BT-549 breast = test system: BT-549 breast
K-562 leukemia = test system: K-562 leukemia
OVCAR-5 ovarian = test system: OVCAR-5 ovarian
MCF7 breast = test system: MCF7 breast
SF-268 CNS = test system: SF-268 CNS
HOP-92 NSCLC = test system: HOP-92 NSCLC
ACHN renal = test system: ACHN renal
COLO 205 colon = test system: COLO 205 colon
IGROV1 ovarian = test system: IGROV1 ovarian
786-0 renal = test system: 786-0 renal
HS 578T breast = test system: HS 578T breast
SN12C renal = test system: SN12C renal
HL-60(TB) leukemia = test system: HL-60(TB) leukemia
NCI-H23 lung = test system: NCI-H23 lung
A549 NSCLC = test system: A549 NSCLC
UACC-62 melanoma = test system: UACC-62 melanoma
SNB-75 CNS = test system: SNB-75 CNS
KM12 colon = test system: KM12 colon
SK-MEL-2 melanoma = test system: SK-MEL-2 melanoma
T-47D breast = test system: T-47D breast
CCRF-CEM leukemia = test system: CCRF-CEM leukemia
MDA-MB-435 = test system: MDA-MB-435
SK-MEL-28 melanoma = test system: SK-MEL-28 melanoma
TK-10 renal = test system: TK-10 renal
SW-620 colon = test system: SW-620 colon
SF-539 CNS = test system: SF-539 CNS
SR leukemia = test system: SR leukemia
NCI-H460 lung = test system: NCI-H460 lung
RPMI-8226 leukemia = test system: RPMI-8226 leukemia
SK-MEL-5 melanoma = test system: SK-MEL-5 melanoma
SK-OV-3 ovarian = test system: SK-OV-3 ovarian
MALME-3M melanoma = test system: MALME-3M melanoma
HCT-15 colon = test system: HCT-15 colon
HT29 colon = test system: HT29 colon
PC-3 prostate = test system: PC-3 prostate
MDA-MB-231 breast = test system: MDA-MB-231 breast
SF-295 CNS = test system: SF-295 CNS
MOLT-4 leukemia = test system: MOLT-4 leukemia

Structure (SMILES): O=C(Nc1cccc(Cl)c1)Nc1nc2ccc([N+](=O)[O-])cc2s1
- GI50 (OVCAR-4 ovarian): 429 nM
- TGI (OVCAR-4 ovarian): 2930 nM
- GI50 (EKVX NSCLC): 558 nM
- TGI (EKVX NSCLC): 3540 nM
- GI50 (HCT-116 colon): 330 nM
- TGI (HCT-116 colon): 1190 nM
- GI50 (SNB-19 CNS): 531 nM
- TGI (SNB-19 CNS): 4280 nM
- GI50 (HOP-62 NSCLC): 911 nM
- TGI (HOP-62 NSCLC): 3550 nM
- GI50 (U251 CNS): 452 nM
- TGI (U251 CNS): 3550 nM
- GI50 (NCI/ADR-RES ovarian): 403 nM
- TGI (NCI/ADR-RES ovarian): 1820 nM
- GI50 (OVCAR-8 ovarian): 1120 nM
- TGI (OVCAR-8 ovarian): 11200 nM
- GI50 (RXF 393 renal): 458 nM
- TGI (RXF 393 renal): 1790 nM
- GI50 (M14 melanoma): 660 nM
- TGI (M14 melanoma): 2540 nM
- GI50 (A498 renal): 244 nM
- TGI (A498 renal): 973 nM
- GI50 (NCI-H226 lung): 623 nM
- TGI (NCI-H226 lung): 2500 nM
- GI50 (UO-31 renal): 388 nM
- TGI (UO-31 renal): 1790 nM
- GI50 (HCC-2998 colon): 465 nM
- TGI (HCC-2998 colon): 2210 nM
- GI50 (DU-145 prostate): 693 nM
- TGI (DU-145 prostate): 8470 nM
- GI50 (LOX IMVI melanoma): 436 nM
- TGI (LOX IMVI melanoma): 1630 nM
- GI50 (UACC-257 melanoma): 532 nM
- TGI (UACC-257 melanoma): 3490 nM
- GI50 (OVCAR-3 ovarian): 402 nM
- TGI (OVCAR-3 ovarian): 1750 nM
- GI50 (NCI-H522 lung): 331 nM
- TGI (NCI-H522 lung): 2010 nM
- GI50 (CAKI-1 renal): 483 nM
- TGI (CAKI-1 renal): 2240 nM
- GI50 (BT-549 breast): 415 nM
- TGI (BT-549 breast): 1400 nM
- GI50 (K-562 leukemia): 355 nM
- TGI (K-562 leukemia): 1420 nM
- GI50 (OVCAR-5 ovarian): 1790 nM
- TGI (OVCAR-5 ovarian): 6830 nM
- GI50 (MCF7 breast): 452 nM
- TGI (MCF7 breast): 3050 nM
- GI50 (SF-268 CNS): 685 nM
- TGI (SF-268 CNS): 3550 nM
- GI50 (HOP-92 NSCLC): 145 nM
- TGI (HOP-92 NSCLC): 454 nM
- GI50 (ACHN renal): 525 nM
- TGI (ACHN renal): 2560 nM
- GI50 (COLO 205 colon): 1260 nM
- TGI (COLO 205 colon): 2840 nM
- GI50 (IGROV1 ovarian): 617 nM
- TGI (IGROV1 ovarian): 3880 nM
- GI50 (786-0 renal): 409 nM
- TGI (786-0 renal): 1690 nM
- GI50 (HS 578T breast): 675 nM
- TGI (HS 578T breast): 3340 nM
- GI50 (SN12C renal): 447 nM
- TGI (SN12C renal): 2520 nM
- GI50 (HL-60(TB) leukemia): 365 nM
- TGI (HL-60(TB) leukemia): 1510 nM
- GI50 (NCI-H23 lung): 304 nM
- TGI (NCI-H23 lung): 989 nM
- GI50 (A549 NSCLC): 779 nM
- TGI (A549 NSCLC): 7460 nM
- GI50 (UACC-62 melanoma): 359 nM
- TGI (UACC-62 melanoma): 1460 nM
- GI50 (SNB-75 CNS): 539 nM
- TGI (SNB-75 CNS): 3170 nM
- GI50 (KM12 colon): 466 nM
- TGI (KM12 colon): 2120 nM
- GI50 (SK-MEL-2 melanoma): 434 nM
- TGI (SK-MEL-2 melanoma): 2030 nM
- GI50 (T-47D breast): 307 nM
- TGI (T-47D breast): 1850 nM
- GI50 (CCRF-CEM leukemia): 375 nM
- TGI (CCRF-CEM leukemia): 3820 nM
- GI50 (MDA-MB-435): 524 nM
- TGI (MDA-MB-435): 2290 nM
- GI50 (SK-MEL-28 melanoma): 423 nM
- TGI (SK-MEL-28 melanoma): 1670 nM
- GI50 (TK-10 renal): 808 nM
- TGI (TK-10 renal): 5490 nM
- GI50 (SW-620 colon): 490 nM
- TGI (SW-620 colon): 2390 nM
- GI50 (SF-539 CNS): 603 nM
- TGI (SF-539 CNS): 2170 nM
- GI50 (SR leukemia): 350 nM
- TGI (SR leukemia): 1910 nM
- GI50 (NCI-H460 lung): 398 nM
- TGI (NCI-H460 lung): 1970 nM
- GI50 (RPMI-8226 leukemia): 263 nM
- TGI (RPMI-8226 leukemia): 632 nM
- GI50 (SK-MEL-5 melanoma): 315 nM
- TGI (SK-MEL-5 melanoma): 1100 nM
- GI50 (SK-OV-3 ovarian): 736 nM
- TGI (SK-OV-3 ovarian): 5170 nM
- GI50 (MALME-3M melanoma): 367 nM
- TGI (MALME-3M melanoma): 1630 nM
- GI50 (HCT-15 colon): 466 nM
- TGI (HCT-15 colon): 2030 nM
- GI50 (HT29 colon): 2820 nM
- TGI (HT29 colon): 10700 nM
- GI50 (PC-3 prostate): 317 nM
- TGI (PC-3 prostate): 1190 nM
- GI50 (MDA-MB-231 breast): 676 nM
- TGI (MDA-MB-231 breast): 3050 nM
- GI50 (SF-295 CNS): 527 nM
- TGI (SF-295 CNS): 1970 nM
- GI50 (MOLT-4 leukemia): 375 nM
- TGI (MOLT-4 leukemia): 2340 nM
